For 19 compounds, IC50 results are on record in patent US20200317660A1, “Quinazolinone Compound and Application Thereof” (LUOXIN PHARMACEUTICAL (SHANGHAI) CO., LTD., priority 2017, published 2020).

Experiment [1] has as its target T1, PI3Kα (Homo sapiens, UniProt P42336).
T1 construct: purchased Millipore 14-602-K
Nature of the experiment: In vitro test of enzyme activity (ADP-Glo lipokinase), PI3K alpha. It is filed as biochemical. The conditions noted are these: 40 μM ATP, 50 μM PIP2:3PS, 120 min. As for the experimental part: (§1) 1. In Vitro Test of Enzyme Activity
(§2) The lipokinase reaction was carried out under the conditions of a suitable substrate and ATP, followed by two steps to detect the kinase activity with the ADP-Glo™ kit. The first step was terminating the kinase reaction, wherein the remaining ATP was completely removed and only ADP was left; the second step was adding kinase detection reagents to convert ADP to ATP, accompanied by luciferin/luciferase reaction. Finally, the output value of fluorescence value was converted into kinase activity.
(§3) Experimental materials and equipments:
(§4) 2. Kit: ADP-Glo™ Lipokinase and PIP2:3PS Kit (Promega # V1792)
(§5) The kit contains: 1 mM PIP2:3PS, 10× lipid dilution buffer, 1 M magnesium chloride, 10 mM ATP, 10 mM ADP, ADP-Glo reagent, detection buffer and detection substrate.
(§6) 3. Reaction plate: OptiPlate-384, white and transparent (PerkinElmer #6007299).
(§7) 1. 10× reaction buffer: 500 mM HEPES, pH 7.5, 500 mM NaCl, 9 mM MgCl2; BSA: 10% stock solution, homemade.
(§8) 2. Final test system conditions: 1× reaction system: 50 mM HEPES, 50 mM NaCl, 3 mM MgCl2, 0.01% BSA (freshly prepared on the day of the experiment), 1% DMSO (v/v)+/−compound
(§9) 3. Reaction system: 3 μL mixture of the enzyme and the substrate (1:1)+2 μL ATP/MgCl2 mixture+5 μL ADP-Glo reagent+10 μL detection reagent.
(§10) The detailed experimental procedures are as follows:
(§11) 1. Compound dilution: 50 nL 100×compound/DMSO was transferred to the test well plate with Echo. • For PI3Kα, the compound was diluted three-fold from the highest concentration of 0.111 mM for a total of 10 concentrations. • For PI3Kβ/PI3Kδ/PI3Kγ, the compound was three-fold diluted from the highest concentration of 1.11 mM for a total of 10 concentrations.
(§12) (1) The compound to be tested was prepared and 50 nL of 100 plus compound solution or DMSO was added to the corresponding well plate.
(§13) (2) 3.33 plate reaction buffer was prepared.
(§14) (3) 3.33 solution PIP2:3PS was prepared, PIP2:3PS was thawed for at least 1 minute before use.
(§15) (4) 2.5 mM containing 5.25 mM MgCl2 was prepared.
(§16) (5) 3.33 PI3Kα/PI3Kβ/PI3Kδ/PI3Kγ solution was prepared.
(§17) (6) The lipokinase solution and the PIP2:3PS solution were mixed in a volume ratio of 1:1.
(§18) (7) 3.33: lipokinase buffer and PIP2:3PS solution were mixed in a volume ratio of 1:1.
(§19) (8) 3 μL of buffer solution and PIP2:3PS were added to the first and the second columns of the well plate.
(§20) (9) 3 μL of the mixed solution of the enzyme and PIP2:3PS was added to the wells except the first and the second columns, centrifuged for 10 seconds (1000 rpm) and incubated at 23° C. for 20 minutes.
(§21) (10) 2 μL […] was added and well was shaken.
(§22) (11) The well plate was covered and shaken for about 30 s, then the well plate was incubated at 23° C. for 2 hours.
(§23) (12) 5 μL of ADP-Glo reagent containing 10 mM MgCl2 was added.
(§24) (13) The well plate was centrifuged at 1000 rpm for 10 seconds, and the well plate was then covered, shaken for about 30 seconds, and incubated at 23° C. for 60 minutes.
(§25) (14) 10 μL kinase detection reagent was added.
(§26) (15) The well plate was centrifuged at 1000 rpm for 10 seconds, and then incubated at 23° C. for 60 minutes.
(§27) (16) The fluorescence value was measured on the Envision instrument.

For experiment [2], the target named is T2, PI3Kβ (Homo sapiens, UniProt P42338).
T2 construct: purchased Promega V1751
Nature of the experiment: In vitro test of enzyme activity (ADP-Glo lipokinase), PI3K beta. The format is biochemical. The conditions noted are these: 40 μM ATP, 50 μM PIP2:3PS, 120 min. As to the method:
as §1, §2, §3, §4, §5, §6, §7, §8, §9, §10, §11, §12, §13, §14, §15, §16, §17, §18, §19, §20, §21, §22, §23, §24, §25, §26, §27
(In general: ADP-Glo first removes unused ATP, then detects ADP through luciferase.)

Experiment [3] deals with T3, PI3Kδ (Homo sapiens, UniProt O00329).
T3 construct: purchased Millipore 14-604-K
Nature of the experiment: In vitro test of enzyme activity (ADP-Glo lipokinase), PI3K delta. It is filed as biochemical. Particulars: 40 μM ATP, 50 μM PIP2:3PS, 120 min. As for the experimental part:
as §1, §2, §3, §4, §5, §6, §7, §8, §9, §10, §11, §12, §13, §14, §15, §16, §17, §18, §19, §20, §21, §22, §23, §24, §25, §26, §27

Experiment [4] deals with T4, PI3Kγ (Homo sapiens, UniProt P48736).
T4 construct: purchased Millipore 14-558-K
Nature of the experiment: In vitro test of enzyme activity (ADP-Glo lipokinase), PI3K gamma. The format is biochemical. The conditions noted are these: 25 μM ATP, 50 μM PIP2:3PS, 120 min. As for the experimental part:
as §1, §2, §3, §4, §5, §6, §7, §8, §9, §10, §11, §12, §13, §14, §15, §16, §17, §18, §19, §20, §21, §22, §23, §24, §25, §26, §27

The test system of experiment [5] is phosphorylation of PI3K downstream protein Akt in MCF7 cells. Nature of the experiment: In vitro test of cells activity: ELISA of Akt phosphorylation in MCF7 cells. It is filed as cell-based. Particulars: 2 h compound, insulin 10 μg/mL stimulation, pAkt ELISA, read-out: MCF7 Cell IC50. As to the method: 2. In vitro test of cells activity
By the method of ELISA, the inhibition level of the test compound on the phosphorylation of PI3K downstream protein Akt in the signaling pathway was determined in MCF7 cells line to reflect the cells activity of the compound.
Cell culture medium: complete cell culture medium (RPMI 1640+10% serum+1% L-glutamine+1% double antibody)
Serum-free medium (without serum, RPMI 1640+1% L-glutamine+1% double antibody)
The detailed procedures areas follows:
(1) MCF7 cells (ATCC® HTB-22™) were inoculated into a 96-well plate at 100 μL of cell complete medium per well (2.5*10^4 cells per well), and the cells were incubated at 37° C. and 5% CO2 for 24 hours.
(2) The complete cell culture medium was replaced with 100 μL of serum-free medium, and incubated for starvation overnight.
(3) The compound was prepared (The initial concentration of the compound is 1 mM, which was subjected to a three-fold dilution in 10 concentrations, and the compound of each concentration was then diluted 100-fold with serum-free medium). 25 μL of the diluted compound was added to the cells orifice plate.
(4) The cells were incubated at 37° C. and 5% CO2 for 2 hours.
(5) The cells in the well plate were stimulated with 10 μg/mL insulin (Sigma # I9278-5 mL), incubated for 30 minutes, and then centrifuged at 1000 rpm for 5 minutes at room temperature.
(6) 250 μL of 1× balanced salt solution (Invitrogen, #14065-056, 4° C., containing 1 mM/L Na3VO4) was added to each well to wash the cells once.
(7) 100 μL of lysis buffer (trimethylolaminomethane hydrochloride, Invitrogen, #15567-1000 ml) was added to each well, shaken at 4° C. for 60 minutes, and then centrifuged at 4000 rpm for 4 minutes.
(8) The following procedures were carried out according to the instructions of ELISA kit (TGR BioSciences # EKT002).
Background: ELISA stands for enzyme-linked immunosorbent assay.

Read-outs that look alike come from different tables or passages of the source.

T4 sequence (P48736 whole entry): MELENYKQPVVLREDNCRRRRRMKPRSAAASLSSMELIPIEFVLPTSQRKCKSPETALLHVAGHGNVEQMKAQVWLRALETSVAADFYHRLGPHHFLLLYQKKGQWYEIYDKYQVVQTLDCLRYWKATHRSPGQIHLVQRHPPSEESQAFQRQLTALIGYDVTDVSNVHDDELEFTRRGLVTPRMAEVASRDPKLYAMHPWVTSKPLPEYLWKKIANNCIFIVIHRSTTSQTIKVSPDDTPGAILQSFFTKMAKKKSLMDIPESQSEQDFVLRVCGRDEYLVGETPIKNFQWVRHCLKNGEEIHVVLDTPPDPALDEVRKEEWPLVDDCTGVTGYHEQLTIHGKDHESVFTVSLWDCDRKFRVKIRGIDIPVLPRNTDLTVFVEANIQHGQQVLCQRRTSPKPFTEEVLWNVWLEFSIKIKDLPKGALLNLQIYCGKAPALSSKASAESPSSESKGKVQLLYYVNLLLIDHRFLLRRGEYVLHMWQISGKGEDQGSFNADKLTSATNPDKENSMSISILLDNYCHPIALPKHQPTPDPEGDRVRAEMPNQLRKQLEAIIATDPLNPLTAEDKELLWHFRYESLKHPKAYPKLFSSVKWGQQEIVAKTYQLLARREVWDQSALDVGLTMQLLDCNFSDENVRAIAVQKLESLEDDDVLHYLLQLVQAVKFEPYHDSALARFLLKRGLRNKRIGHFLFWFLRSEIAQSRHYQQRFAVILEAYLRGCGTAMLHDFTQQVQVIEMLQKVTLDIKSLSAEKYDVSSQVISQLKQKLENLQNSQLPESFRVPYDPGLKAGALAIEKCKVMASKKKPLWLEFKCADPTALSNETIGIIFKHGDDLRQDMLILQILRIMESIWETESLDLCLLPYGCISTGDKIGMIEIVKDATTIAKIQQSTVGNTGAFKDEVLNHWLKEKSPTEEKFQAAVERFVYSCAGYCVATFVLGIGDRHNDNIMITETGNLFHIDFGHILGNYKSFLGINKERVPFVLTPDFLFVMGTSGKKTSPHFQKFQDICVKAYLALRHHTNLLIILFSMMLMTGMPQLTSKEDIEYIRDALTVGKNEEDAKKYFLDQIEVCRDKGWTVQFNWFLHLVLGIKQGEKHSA
T1 sequence (P42336 whole entry): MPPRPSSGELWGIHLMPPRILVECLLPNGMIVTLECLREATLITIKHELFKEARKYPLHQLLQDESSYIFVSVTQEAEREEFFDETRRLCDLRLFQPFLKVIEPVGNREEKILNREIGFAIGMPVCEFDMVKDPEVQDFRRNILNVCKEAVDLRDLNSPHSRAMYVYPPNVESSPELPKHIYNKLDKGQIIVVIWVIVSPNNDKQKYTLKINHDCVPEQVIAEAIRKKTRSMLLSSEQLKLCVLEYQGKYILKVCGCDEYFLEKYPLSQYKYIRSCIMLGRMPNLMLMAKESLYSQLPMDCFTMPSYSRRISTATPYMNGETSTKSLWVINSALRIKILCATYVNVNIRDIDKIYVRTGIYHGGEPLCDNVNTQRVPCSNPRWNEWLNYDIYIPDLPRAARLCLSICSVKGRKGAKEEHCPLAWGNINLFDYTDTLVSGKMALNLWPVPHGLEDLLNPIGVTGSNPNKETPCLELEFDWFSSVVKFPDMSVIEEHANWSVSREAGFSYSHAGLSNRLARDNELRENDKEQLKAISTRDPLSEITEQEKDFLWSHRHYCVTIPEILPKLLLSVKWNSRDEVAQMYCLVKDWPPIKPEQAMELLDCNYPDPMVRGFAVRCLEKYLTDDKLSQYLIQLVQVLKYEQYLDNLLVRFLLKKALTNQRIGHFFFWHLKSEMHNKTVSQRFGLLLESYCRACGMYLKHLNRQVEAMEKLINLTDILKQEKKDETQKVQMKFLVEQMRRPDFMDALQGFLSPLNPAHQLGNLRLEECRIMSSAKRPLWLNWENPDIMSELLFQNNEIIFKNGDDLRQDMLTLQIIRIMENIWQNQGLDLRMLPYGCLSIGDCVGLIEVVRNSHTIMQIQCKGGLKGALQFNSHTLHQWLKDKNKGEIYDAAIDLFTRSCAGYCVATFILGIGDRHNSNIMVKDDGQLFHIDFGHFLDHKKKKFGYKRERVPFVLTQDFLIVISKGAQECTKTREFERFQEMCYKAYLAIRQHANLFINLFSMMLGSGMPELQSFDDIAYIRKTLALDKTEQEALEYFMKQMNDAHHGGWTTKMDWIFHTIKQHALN
T1 sequence (P27986 whole entry partner): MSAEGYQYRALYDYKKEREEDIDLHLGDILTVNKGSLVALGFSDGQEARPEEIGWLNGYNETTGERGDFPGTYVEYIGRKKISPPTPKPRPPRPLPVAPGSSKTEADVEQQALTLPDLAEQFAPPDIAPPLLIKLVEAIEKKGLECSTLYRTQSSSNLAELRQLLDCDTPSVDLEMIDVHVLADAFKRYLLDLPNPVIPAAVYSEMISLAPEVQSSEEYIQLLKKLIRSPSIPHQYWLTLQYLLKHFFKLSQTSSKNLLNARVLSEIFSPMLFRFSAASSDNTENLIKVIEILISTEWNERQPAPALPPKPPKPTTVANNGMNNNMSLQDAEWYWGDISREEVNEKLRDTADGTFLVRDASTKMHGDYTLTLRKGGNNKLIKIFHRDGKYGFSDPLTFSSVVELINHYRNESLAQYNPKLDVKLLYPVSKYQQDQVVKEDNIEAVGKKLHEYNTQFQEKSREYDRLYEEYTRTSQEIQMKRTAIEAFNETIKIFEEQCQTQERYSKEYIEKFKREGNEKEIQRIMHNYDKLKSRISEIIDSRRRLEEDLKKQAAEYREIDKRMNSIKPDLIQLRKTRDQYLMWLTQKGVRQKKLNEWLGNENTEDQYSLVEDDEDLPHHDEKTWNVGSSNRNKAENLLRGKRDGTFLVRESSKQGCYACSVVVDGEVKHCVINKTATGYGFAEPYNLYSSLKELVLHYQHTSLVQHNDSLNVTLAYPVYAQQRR
T3 sequence (O00329 whole entry): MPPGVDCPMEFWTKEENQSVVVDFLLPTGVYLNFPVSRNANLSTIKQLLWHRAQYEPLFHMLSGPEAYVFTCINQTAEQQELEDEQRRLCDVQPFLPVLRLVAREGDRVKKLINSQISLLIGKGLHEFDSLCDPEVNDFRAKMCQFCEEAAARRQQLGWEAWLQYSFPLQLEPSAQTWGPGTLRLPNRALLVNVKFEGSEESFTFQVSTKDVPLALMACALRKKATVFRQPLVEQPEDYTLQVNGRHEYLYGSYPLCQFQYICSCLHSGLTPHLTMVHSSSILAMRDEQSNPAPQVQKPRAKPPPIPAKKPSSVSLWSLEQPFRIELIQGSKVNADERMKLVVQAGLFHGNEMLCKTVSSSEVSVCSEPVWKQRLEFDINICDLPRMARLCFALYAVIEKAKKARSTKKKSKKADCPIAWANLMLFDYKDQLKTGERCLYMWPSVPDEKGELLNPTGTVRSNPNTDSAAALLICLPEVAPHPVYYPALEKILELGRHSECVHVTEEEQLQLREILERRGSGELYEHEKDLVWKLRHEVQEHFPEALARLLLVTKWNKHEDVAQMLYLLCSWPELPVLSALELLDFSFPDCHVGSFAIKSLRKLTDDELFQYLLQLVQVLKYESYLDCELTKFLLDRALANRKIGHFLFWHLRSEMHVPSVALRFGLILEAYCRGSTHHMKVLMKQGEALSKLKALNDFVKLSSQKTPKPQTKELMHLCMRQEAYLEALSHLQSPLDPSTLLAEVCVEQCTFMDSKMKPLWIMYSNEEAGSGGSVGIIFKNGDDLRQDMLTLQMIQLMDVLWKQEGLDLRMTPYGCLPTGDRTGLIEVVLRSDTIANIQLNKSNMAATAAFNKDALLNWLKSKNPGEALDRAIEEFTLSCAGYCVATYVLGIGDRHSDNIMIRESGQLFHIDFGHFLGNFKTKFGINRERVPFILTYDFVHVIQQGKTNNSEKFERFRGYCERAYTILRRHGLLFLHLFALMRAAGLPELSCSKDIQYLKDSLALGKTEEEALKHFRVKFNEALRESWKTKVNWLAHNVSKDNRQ
T3 sequence (P27986 whole entry partner): as the sequence (P27986 whole entry partner) above
T2 sequence (P42338 whole entry): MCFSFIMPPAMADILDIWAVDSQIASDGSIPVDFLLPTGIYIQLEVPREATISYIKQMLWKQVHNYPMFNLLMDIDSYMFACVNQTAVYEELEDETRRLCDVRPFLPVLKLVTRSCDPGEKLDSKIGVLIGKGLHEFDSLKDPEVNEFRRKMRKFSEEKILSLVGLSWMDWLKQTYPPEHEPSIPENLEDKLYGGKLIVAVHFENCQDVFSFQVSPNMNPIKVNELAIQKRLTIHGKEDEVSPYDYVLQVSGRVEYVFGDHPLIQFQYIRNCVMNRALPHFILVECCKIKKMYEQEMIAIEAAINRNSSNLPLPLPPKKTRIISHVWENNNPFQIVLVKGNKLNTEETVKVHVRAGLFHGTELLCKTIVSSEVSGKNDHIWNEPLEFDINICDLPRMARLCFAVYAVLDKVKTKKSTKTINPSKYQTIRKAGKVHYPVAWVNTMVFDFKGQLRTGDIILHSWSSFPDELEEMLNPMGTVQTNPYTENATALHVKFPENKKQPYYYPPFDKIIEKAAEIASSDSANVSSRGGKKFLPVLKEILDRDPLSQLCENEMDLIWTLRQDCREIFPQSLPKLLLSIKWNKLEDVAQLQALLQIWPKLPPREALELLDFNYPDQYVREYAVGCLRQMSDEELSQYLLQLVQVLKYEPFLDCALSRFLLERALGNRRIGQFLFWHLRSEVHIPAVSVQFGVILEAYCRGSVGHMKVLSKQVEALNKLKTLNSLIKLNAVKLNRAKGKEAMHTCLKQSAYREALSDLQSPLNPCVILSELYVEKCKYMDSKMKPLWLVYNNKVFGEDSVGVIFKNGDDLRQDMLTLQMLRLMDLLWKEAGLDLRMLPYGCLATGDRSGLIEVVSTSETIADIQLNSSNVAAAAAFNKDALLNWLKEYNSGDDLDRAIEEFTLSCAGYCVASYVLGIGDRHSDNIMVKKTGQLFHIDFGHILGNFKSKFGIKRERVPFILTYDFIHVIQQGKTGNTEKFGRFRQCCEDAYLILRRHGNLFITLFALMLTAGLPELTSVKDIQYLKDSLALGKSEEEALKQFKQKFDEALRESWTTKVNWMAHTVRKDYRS
T2 sequence (P27986 whole entry partner): as the sequence (P27986 whole entry partner) above

As for `COc1ncc(-c2ccc3ncn(CC(C)C(=O)O)c(=O)c3c2)cc1NS(=O)(=O)c1ccc(F)cc1Cl` (single isomer, unassigned) [R002, reference compound], the IC50 (as a rule, the concentration needed to halve the response being measured) is 13.6 nM in experiment [1]; 1060 nM in experiment [2]; 122 nM in experiment [3]; 20.4 nM in experiment [4]; 628 nM in experiment [5].
As to `COc1ncc(-c2ccc3ncn(CC(C)C(=O)O)c(=O)c3c2)cc1NS(=O)(=O)c1ccc(F)cc1Cl` (single isomer, unassigned) [R003, reference compound], the IC50 in experiment [1] was 7.16 nM; in experiment [2], 426 nM; in experiment [3], 85 nM; in experiment [4], 5.29 nM; in experiment [5] (Homo sapiens, MCF7, 2 h) it was 318 nM.
As to `COc1ncc(-c2ccc3ncn(CC(C)C(N)=O)c(=O)c3c2)cc1NS(=O)(=O)c1sc(C)nc1C` (single isomer, unassigned) [WX024], the IC50 in experiment [1] was 0.29 nM; in experiment [2] it was 19.9 nM; in experiment [3], 0.47 nM; in experiment [4], 2.03 nM; in experiment [5] it was 71.5 nM.
For `COc1ncc(-c2ccc3ncn(CC(C)C(N)=O)c(=O)c3c2)cc1NS(=O)(=O)c1sc(C)nc1C` (single isomer, unassigned) [WX025] the same measures were 0.41 nM, 13.2 nM, 0.47 nM, 1 nM and 23.9 nM.
For `COCCNC(=O)C(C)Cn1cnc2ccc(-c3cnc(OC)c(NS(=O)(=O)c4ccc(F)cc4Cl)c3)cc2c1=O` (single isomer, unassigned) [WX065] the same measures were 4.9 nM, 1120 nM, 29.7 nM, 45.2 nM and 72 nM.
For the compound `CNC(=O)C(C)Cn1cnc2ccc(-c3cnc(OC)c(NS(=O)(=O)c4ccc(C)cc4C)c3)cc2c1=O` (single isomer, unassigned) [WX091], the IC50 in experiment [1] came out at 5.11 nM; in experiment [2], 537 nM; in experiment [3] it was 26.2 nM; in experiment [4] it was 97.3 nM; in experiment [5], 5.7 nM.
For `CNC(=O)C(C)Cn1cnc2c(F)cc(-c3cnc(OC)c(NS(=O)(=O)c4ccc(F)cc4Cl)c3)cc2c1=O` (single isomer, unassigned) [WX105] the same measures were 10.5 nM, 1150 nM, 41.1 nM, 29.2 nM and 193 nM.
Take `CCC(Cn1cnc2ccc(-c3cnc(OC)c(NS(=O)(=O)c4ccc(F)cc4Cl)c3)cc2c1=O)C(=O)NC` (single isomer, unassigned) [WX107]: the IC50 in experiment [1] amounted to 18.1 nM; in experiment [2], 1850 nM; in experiment [5], 302 nM.
On to `CCC(Cn1cnc2ccc(-c3cnc(OC)c(NS(=O)(=O)c4ccc(F)cc4Cl)c3)cc2c1=O)C(=O)NC` (single isomer, unassigned) [WX108], for which the IC50 in experiment [1] is 13.9 nM; in experiment [2], 415 nM; in experiment [5], 96.5 nM.
For `CNC(=O)[C@@H]1CCC[C@H]1Cn1cnc2ccc(-c3cnc(OC)c(NS(=O)(=O)c4ccc(F)cc4Cl)c3)cc2c1=O` (single isomer, unassigned) [WX196] the same measures were 41 nM, 1770 nM and 395 nM.
Consider `COc1ncc(-c2ccc3ncn(CCC(N)=O)c(=O)c3c2)cc1NS(=O)(=O)c1ccc(F)cc1Cl` [WX001], for which the IC50 is 1.16 nM in experiment [1]; 68.5 nM in experiment [2]; 3.88 nM in experiment [3]; 4.57 nM in experiment [4]; 16.8 nM in experiment [5] (Homo sapiens, MCF7, 2 h).
For `Cc1nc(C)c(S(=O)(=O)Nc2cc(-c3ccc4ncn(CCCC(=O)NC(C)C)c(=O)c4c3)cnc2C)s1` [WX006] the same measures were 1 nM, 279 nM, 4.53 nM, 19.6 nM and 279 nM.
For `CNC(=O)[C@H]1C[C@H](n2cnc3ccc(-c4cnc(C)c(NS(=O)(=O)c5ccc(F)cc5Cl)c4)cc3c2=O)C1` [WX013] the same measures were 1.22 nM, 95.9 nM, 5.25 nM, 15.2 nM and 209 nM.
In the case of `CCC(Cn1cnc2ccc(-c3cnc(OC)c(NS(=O)(=O)c4ccc(F)cc4Cl)c3)cc2c1=O)C(N)=O` (centres unmarked) [WX021], the concentration for half-maximal inhibition (IC50) was 6.89 nM in experiment [1]; 133 nM in experiment [2]; 52.3 nM in experiment [5] (Homo sapiens, MCF7, 2 h).
For `COc1ncc(-c2ccc3ncn(CC(C(N)=O)C(C)C)c(=O)c3c2)cc1NS(=O)(=O)c1ccc(F)cc1Cl` (centres unmarked) [WX022], in that order: 25.5 nM, 832 nM and 125 nM.
On to `COc1ncc(-c2ccc3ncn(CC4(C(N)=O)CC4)c(=O)c3c2)cc1NS(=O)(=O)c1ccc(F)cc1Cl` [WX023], for which the concentration for half-maximal inhibition (IC50) in experiment [1] amounted to 5.71 nM; in experiment [2], 82.4 nM; in experiment [3] it was 2.02 nM; in experiment [4] it was 20.6 nM; in experiment [5] (Homo sapiens, MCF7, 2 h) it was 39.9 nM.
For `COc1ncc(-c2ccc3ncn(CC(N)C(N)=O)c(=O)c3c2)cc1NS(=O)(=O)c1ccc(F)cc1Cl` (centres unmarked) [WX040] the same measures were 5.4 nM, 183 nM, 25.6 nM, 39.9 nM and 134 nM.
In the case of `CNC(=O)C(C)Cn1cnc2ccc(-c3cnc(OC(F)(F)F)c(NS(=O)(=O)c4ccc(F)cc4Cl)c3)cc2c1=O` (centres unmarked) [WX127], the IC50 in experiment [1] is 22.8 nM; in experiment [2], 2160 nM; in experiment [5] (Homo sapiens, MCF7, 2 h), > 1000 nM.
On to `CNC(=O)[C@@H](C)Cn1cnc2ccc(-c3cnc(OC)c(NS(=O)(=O)c4cc(F)cc(F)c4)c3)cc2c1=O` [WX192], for which the IC50 in experiment [1] amounted to 5.39 nM; in experiment [2], 633 nM; in experiment [3] it was 37.5 nM; in experiment [4], 37.8 nM; in experiment [5], 53.6 nM.
